Test results reported in patent publication US20260240797A1, “TREATMENT OF ULCERATIVE COLITIS COMPRISING VIDOFLUDIMUS OR A PHARMACEUTICALLY ACCEPTABLE SALT THEREOF” (IMMUNIC AG, priority 2022, published 2026).
Counter-ions that a name gives are not always drawn.

Experiments:
[1] = test system: patients with relapsing remitting MS (rrMS); details: cited from earlier work
[2] = test system: patients with moderate-to-severe ulcerative colitis; test: CALDOSE-1 phase 2 trial, maintenance phase efficacy (Week 50); assay type: in vivo, human; details: for Clinical Remission Rate at Week 50 (steroid-free): Modified Full Analysis Set MP; for Number of Patients with Clinical Remission at Week 50 (steroid-free): Modified Full Analysis Set MP (corticosteroids during induction)
[3] = test system: secretion of IL-17 and IFNγ; details: in vitro; cited from earlier work
[4] = test system: patients with moderate-to-severe ulcerative colitis; test: CALDOSE-1 phase 2 trial (NCT03341962), induction phase efficacy; assay type: in vivo, human; details: for Odds Ratio Estimate to achieve clinical remission versus placebo: active treatment groups of 30/45 mg, multivariate logistical regression
[5] = in vivo; cited from earlier work
[6] = test system: T-lymphocyte proliferation; details: in vitro; cited from earlier work
[7] = test system: patients with moderate-to-severe ulcerative colitis; test: CALDOSE-1 phase 2 trial, safety and tolerability; assay type: in vivo, human; details: for Incidence of TEAEs of Special Interest: red blood cells urine positive, hematuria or retroperitoneal pain
[8] = target: human DHODH (Homo sapiens, UniProt Q02127); details: cited from earlier work
Sequence of human DHODH (Q02127 whole entry): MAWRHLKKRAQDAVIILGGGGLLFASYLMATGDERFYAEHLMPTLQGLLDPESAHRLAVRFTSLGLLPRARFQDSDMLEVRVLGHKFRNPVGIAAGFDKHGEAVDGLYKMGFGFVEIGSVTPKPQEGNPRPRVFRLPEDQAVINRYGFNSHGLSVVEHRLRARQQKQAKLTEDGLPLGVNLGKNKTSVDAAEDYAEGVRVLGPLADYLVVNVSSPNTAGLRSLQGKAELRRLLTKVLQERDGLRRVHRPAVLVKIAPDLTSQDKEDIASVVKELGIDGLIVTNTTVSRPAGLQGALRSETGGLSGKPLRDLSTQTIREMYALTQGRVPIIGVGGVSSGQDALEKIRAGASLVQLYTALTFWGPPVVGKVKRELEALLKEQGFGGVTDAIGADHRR

[9] = test system: patients with active rheumatoid arthritis; details: 35 mg once-daily for 13 weeks; cited from earlier work
[10] = test system: patients with CD; details: 12 weeks, cited from earlier work
[11] = test system: patients with inflammatory bowel disease (IBD); details: 35 mg oral once daily, 12 weeks; cited from earlier work
[12] = test system: patients with UC; details: 12 weeks, cited from earlier work

COc1cccc(-c2ccc(NC(=O)C3=C(C(=O)O)CCC3)c(F)c2)c1 [IMU-838, 1-cyclopentene-1-carboxylic acid, 2-(((3-fluoro-3′-methoxy(1,1′-biphenyl)-4-yl)amino)carbonyl)-, calcium salt (2:1)]
safety profile ([1]; 30 mg and 45 mg doses): favorable safety profile
suppression of MRI activity ([1]; 30 mg dose, 24-weeks of treatment): 70%
Clinical Remission Rate at Week 50 (steroid-free) ([2]; 10 mg): 38.5%
Number of Patients with Clinical Remission at Week 50 (steroid-free) ([2]; 10 mg, N10 = 22): 5
Mean time to symptomatic UC relapse ([2]; 10 mg, N = 45): 231.7 days
Clinical Remission Rate at Week 50 ([2]; 10 mg, n = 26/35): 42.3%
Number of Patients with Clinical Remission at Week 50 ([2]; 10 mg, n = 26/35 evaluated/total): 11
Endoscopic Healing Rate at Week 50 ([2]; 10 mg, n = 28/35): 53.6%
Number of Patients Meeting Endpoint (Endoscopic Healing at Week 50) ([2]; 10 mg, n = 28/35): 15
delta (Δ) vs placebo in clinical remission at Week 50 ([2]; 30 mg, 95% CI 3.2%-59.3%): 33.8%
Clinical Remission Rate at Week 50 (steroid-free) ([2]; 30 mg): 66.7%
Number of Patients with Clinical Remission at Week 50 (steroid-free) ([2]; 30 mg, N30 = 22): 8
Mean time to symptomatic UC relapse ([2]; 30 mg, N = 40): 221.9 days
Clinical Remission Rate at Week 50 ([2]; 30 mg, n = 26/29): 61.5%
Endoscopic Healing Rate at Week 50 ([2]; 30 mg, n = 26/29): 73.1%
Number of Patients Meeting Endpoint (Endoscopic Healing at Week 50) ([2]; 30 mg, n = 26/29): 19
Number of Patients with Clinical Remission at Week 50 ([2]; 30 mg, n = 26/29 evaluated/total): 16
odds ratio (30 mg IMU-838/Placebo) for clinical remission at Week 50 ([2]; 30 mg, two-sided Pearson's chi-square p=0.0358): 4.16
secretion of IL-17 and IFNγ [3]: inhibited
clinical remission at week 10 ([4]; 10 mg/day, overall intent-to-treat patient population): 14.9%
clinical remission at week 10 ([4]; 30 mg/day, overall intent-to-treat patient population): 10.6%
clinical remission at week 10 ([4]; 45 mg/day, overall intent-to-treat patient population): 13.6%
Odds Ratio Estimate to achieve clinical remission versus placebo ([4]; with concomitant steroids): 0.58
Odds Ratio Estimate to achieve clinical remission versus placebo ([4]; without concomitant steroids): 3.53
rate of clinical remission at week 10 ([4]; patients concomitantly taking corticosteroids during induction treatment): 11.5%
clinical remission (primary endpoint) at Week 10 ([4]; pooled 30 and 45 mg, Full Analysis Set, n=16 missing data): 13.8%
patients with clinical remission (primary endpoint) at Week 10 ([4]; pooled 30 and 45 mg, Full Analysis Set, of 116 evaluated): 16
advantage in clinical remission over placebo ([4]; pooled treatment groups at week 10, non-steroid patient population): 11.4%
clinical remission at week 10 ([4]; pooled treatment groups, non-steroid patient population (no concurrent corticosteroids)): 14.7%
half-life [5]: approximately 30 h
T-lymphocyte proliferation [6]: inhibited
safety and tolerability ([7]; induction phase, 10, 30, 45 mg/day): safe and well-tolerated
Incidence of Liver TEAEs ([7]; maintenance phase, 10 mg): 2.2%
Incidence of Renal TEAEs ([7]; maintenance phase, 10 mg): 2.2%
Incidence of Serious TEAEs ([7]; maintenance phase, 10 mg): 6.7%
Incidence of TEAEs ([7]; maintenance phase, 10 mg, N10 = 45): 35.6%
Incidence of TEAEs of Special Interest ([7]; maintenance phase, 10 mg): 0.0%
Incidence of Liver TEAEs ([7]; maintenance phase, 30 mg): 0.0
Incidence of Renal TEAEs ([7]; maintenance phase, 30 mg): 5%
Incidence of Serious TEAEs ([7]; maintenance phase, 30 mg): 5%
Incidence of TEAEs ([7]; maintenance phase, 30 mg, N30 = 40): 40%
Incidence of TEAEs of Special Interest ([7]; maintenance phase, 30 mg): 5%
safety and tolerability ([7]; maintenance phase, 10 and 30 mg): safe and well tolerated
potency against human DHODH [8]: submicromolar potency

COc1cccc(-c2ccc(NC(=O)C3=C(C(=O)O)CCC3)c(F)c2)c1 [Vidofludimus, 2-((3-fluoro-3′-methoxy-[1,1′-biphenyl]-4-yl)carbamoyl)cyclopent-1-enecarboxylic acid]
diarrhoea, alopecia, neutropenia or liver enzyme elevations [9]: no notable increases
safety profile compared to placebo [9]: overall similar safety profile as compared to placebo
number of partial responders ([10]; 35 mg oral once daily): 4
partial responders ([10]; 35 mg oral once daily): 29%
patients in steroid-free remission (complete responders) ([10]; 35 mg oral once daily): 57%
number of patients in steroid-free remission (complete responders) ([10]; out of 14, 35 mg oral once daily): 8
tolerability / drug-related serious adverse events [11]: well tolerated and no drug-related serious adverse events were observed
number of partial responders ([12]; 35 mg oral once daily): 5
partial responders ([12]; 35 mg oral once daily): 42%
patients in steroid-free remission (complete responders) ([12]; 35 mg oral once daily): 50%
number of patients in steroid-free remission (complete responders) ([12]; out of 12, 35 mg oral once daily): 6
